# Literature values as cited in patent publication US5874549A, “Acid-cleavable compound” (NeoRx Corporation, priority 1993, dated 1999).
# Settings: relative to Cpd 1 = 1
row,SMILES,Relative Rate (hydrolysis of the amide group)
1,CNC(=O)/C=C\C(=O)O [Cpd 1],1
2,CNC(=O)/C=C(/C)C(=O)O [Cpd 2],31.2
3,CC/C(=C/C(=O)NC)C(=O)O [Cpd 3],32.8
4,CNC(=O)/C=C(\C(=O)O)C(C)C [Cpd 4],44.5
5,CNC(=O)/C=C(\C(=O)O)C(C)(C)C [Cpd 5],68.0
6,CCCNC(=O)/C(C)=C(/C)C(=O)O [Cpd 6],2.35 × 10^4
7,CNC(=O)C1=C(C(=O)O)CCCC1 [Cpd 7],540
8,CNC(=O)C1=C(C(=O)O)CCC1 [Cpd 8],4.2 × 10^-5
9,CNC(=O)C1=C(C(=O)O)CC1 [Cpd 9],4.2 × 10^-6
10,CNC(=O)c1ccccc1C(=O)O [Cpd 10],0.72
11,CC(C)NC(=O)/C=C\C(=O)O [Cpd 11],0.7
12,CC(C)(C)NC(=O)/C=C\C(=O)O [Cpd 12],2.6
13,O=C(O)/C=C\C(=O)Nc1ccccc1 [Cpd 13],4.5
14,CN(C)C(=O)/C=C\C(=O)O [Cpd 14],42.7
15,C=CC(=O)NC [N-methyl acrylamide],~1.4 × 10^-7
